Results published in US20100056526A1, “HETEROMONOCYCLIC COMPOUND AND USE THEREOF” (Takeda Pharmaceutical Company Limited, priority 2006, published 2010).

Key:
PPARγ = target: T1, PPARγ (Homo sapiens, UniProt P37231); assay: Evaluation of PPARγ activating action (luciferase reporter in PPARγ:RXRα:4ERPP/CHO-K1 cells); assay type: cell-based; conditions: CHO-K1, 24 h; test compound 10^−6 M; luciferase activity relative to control compound X (1 μM) = 100%, non-administration group = 0%; read-out: PPARγ activating action (activation % (10^−6 M))
T1 construct: expressed in transfected cells; host or cells: CHO-K1
T1 sequence (P37231 1-477 isoform P37231-2): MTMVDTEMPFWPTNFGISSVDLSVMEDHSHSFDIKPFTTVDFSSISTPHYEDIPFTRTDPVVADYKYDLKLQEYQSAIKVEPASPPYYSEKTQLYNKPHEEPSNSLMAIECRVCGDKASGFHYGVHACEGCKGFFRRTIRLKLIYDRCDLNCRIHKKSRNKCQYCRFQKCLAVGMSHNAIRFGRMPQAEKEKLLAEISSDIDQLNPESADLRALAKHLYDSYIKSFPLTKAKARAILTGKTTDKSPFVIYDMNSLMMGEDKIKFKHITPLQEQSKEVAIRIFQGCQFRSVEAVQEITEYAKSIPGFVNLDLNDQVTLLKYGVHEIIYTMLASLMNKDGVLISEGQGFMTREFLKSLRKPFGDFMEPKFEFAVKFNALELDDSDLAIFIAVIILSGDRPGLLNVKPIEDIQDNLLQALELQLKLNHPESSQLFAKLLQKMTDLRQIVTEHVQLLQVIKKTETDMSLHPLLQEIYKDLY
T1 sequence (P19793 1-462 partner): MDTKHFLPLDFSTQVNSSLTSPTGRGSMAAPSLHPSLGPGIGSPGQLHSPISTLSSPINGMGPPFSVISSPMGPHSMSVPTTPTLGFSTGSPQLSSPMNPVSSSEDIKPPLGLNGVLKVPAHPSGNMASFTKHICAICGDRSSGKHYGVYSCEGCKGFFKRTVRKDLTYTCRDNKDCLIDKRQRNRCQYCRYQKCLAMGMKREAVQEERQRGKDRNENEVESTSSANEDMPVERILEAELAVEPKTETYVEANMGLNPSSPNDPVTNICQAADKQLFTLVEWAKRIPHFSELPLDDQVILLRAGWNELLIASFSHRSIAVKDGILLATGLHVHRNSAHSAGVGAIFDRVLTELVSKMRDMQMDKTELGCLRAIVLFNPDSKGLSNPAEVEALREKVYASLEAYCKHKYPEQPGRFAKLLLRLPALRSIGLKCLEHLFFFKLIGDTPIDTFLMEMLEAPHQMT
Method: PPARγ:RXRα:4ERPP/CHO-K1 cells obtained in the following Reference Example 5 were cultured in F12 medium [manufactured by INVITROGEN, USA] containing 10% fetal bovine serum [manufactured by MOREGATE, Australia], seeded in a 96-well half area white plate [manufactured by Corning Coster Corporation, USA] at the density of 5×10^3 cells/well and cultured in a CO2 gas incubator at 37° C. overnight.
Then the medium was removed from the 96-well half area white plate, 45 μl of Ham's F12 medium containing 0.1% fatty acid-free bovine serum albumin (BSA) and 5 μl of test compound were added, and the cells were cultured in a CO2 gas incubator at 37° C. for 1 day. The medium was removed and 20 μl of PicaGene 7.5 [manufactured by TOYO INK MFG. CO., LTD.,.Japan] diluted 2-fold with HBSS (HANKS' BALANCED SALT SOLUTION) [manufactured by BIO WHITTAKER, USA] was added. After stirring, the luciferase activity was determined using 1420 ARVO Multilabel Counter [manufactured by PerkinElmer, USA].
The percent (%) was calculated from the luciferase activity of each test compound when the luciferase activity of the control compound (compound X: 5-[3-(4-{[2-(2-furyl)-5-methyl-1,3-oxazol-4-yl]methoxy}-3-methoxyphenyl)propyl]-1,3-oxazolidine-2,4-dione) (1 μM) was 100% and that of the test compound non-administration group was 0%.
A CHO-K1 cell cultured in a 150 cm^2 cell culture flask [manufactured by Corning Costar Corporation, USA] containing Ham's F12 medium [manufactured by INVITROGEN, USA] supplemented with 10% fetal bovine serum [manufactured by INVITROGEN, USA] was scraped by treating with 0.5 g/L trypsin-0.2 g/L EDTA (ethylenediaminetetraacetic acid) [manufactured by Life Technologies, Inc., USA], and then the cell was washed with PBS (Phosphate-buffered saline) [manufactured by INVITROGEN, USA], centrifuged (1000 rpm, 5 minutes) and suspended in PBS. Subsequently, DNA was introduced into the cell under the conditions shown below using GENE PULSER [manufactured by Bio-Rad Laboratories, USA].
Namely, to a cuvette having a 0.4 cm gap were added 8×10^6 cells and 10 μg of plasmid pVgRXR2-hPPARγ obtained in Reference Example 4 and 10 μg of reporter plasmid pGL3-4ERPP-TK neo obtained in Reference Example 3, which was subjected to electroporation at the voltage of 0.25 kV under the capacitance of 960 μF. Subsequently, the cell was transferred into a F12 medium containing 10% fetal bovine serum and cultured for 24 hours, and then the cell was scraped again and centrifuged, and then suspended in Ham's F12 medium containing 10% fetal bovine serum supplemented with 500 μg/ml of Geneticin [manufactured by INVITROGEN, USA] and 250 μg/ml of Zeocin [manufactured by INVITROGEN, USA]. The obtained suspension was diluted to the density of 10^4 cells/ml and inoculated in a 96-well plate [manufactured by Corning Costar Corporation, USA], which was cultured in a CO2 gas incubator at 37° C., whereby obtaining a Geneticin- and Zeocin-resistant transformant.
Subsequently, after the transformant cell line thus obtained was cultured in a 24-well plate [manufactured by Corning Costar Corporation, USA], a cell line in which the luciferase was expressed and induced, i.e., PPARγ:RXRα:4ERPP/CHO-K1 cell was selected by the addition of 10 μM pioglitazone hydrochloride.

human AT1 receptor = target: T2, human AT1 receptor (Homo sapiens, UniProt P30556); assay: Binding assay using human AT1 receptor-expressing CHO-K1 cell membrane fraction ([125I]-angiotensin II); conditions: 22.5 pM [125I]-angiotensin II, 9 μg AT1 membrane, 1 hr room temperature; read-out: AT1 receptor binding inhibitory action (IC50 (nM))
T2 construct: expressed in transfected cells; host or cells: CHO-K1
T2 sequence (P30556 1-359): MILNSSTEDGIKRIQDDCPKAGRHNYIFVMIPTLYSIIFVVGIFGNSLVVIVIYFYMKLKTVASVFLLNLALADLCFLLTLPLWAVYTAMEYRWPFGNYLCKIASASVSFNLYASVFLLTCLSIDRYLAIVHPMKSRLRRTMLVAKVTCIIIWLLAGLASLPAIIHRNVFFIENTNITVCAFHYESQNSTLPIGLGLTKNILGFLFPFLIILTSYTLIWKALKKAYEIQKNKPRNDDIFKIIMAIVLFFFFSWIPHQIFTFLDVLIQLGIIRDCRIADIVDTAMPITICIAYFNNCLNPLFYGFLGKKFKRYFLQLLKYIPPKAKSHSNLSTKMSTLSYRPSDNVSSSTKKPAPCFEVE
Method: The membrane fraction for human AT1 receptor binding assay was prepared as follows. CHO-K1 cell capable of stable expression of human AT1 receptor was cultured, recovered, suspended in homogenize buffer (10 mM NaHCO3 (pH 7.4), 5 mM EDTA, 1×Complete EDTA free) [manufactured by Roche, Switzerland], and homogenized. The homogenate was centrifuged at low-speed (900×g, 10 min, 4° C.), and the supernatant was recovered and ultracentrifuged (90,000×g, 1 hr, 4° C.). The supernatant was discarded, and the pellets were resuspended in resuspension buffer (50 mM Tris (pH 7.4), 1 mM EDTA, 1×Complete EDTA free).
The binding assay was performed in the presence of 22.5 pM [^125I]-angiotensin II [manufactured by PerkinElmer, USA], 9 μg of AT1 membrane and test compound in 100 μL (total reaction volume) of reaction buffer (50 mM Tris (pH 7.4), 10 mM MgCl2 supplemented or not supplemented with 0.3 mg/mL fatty acid-free bovine serum albumin [manufactured by Wako Pure Chemical Industries, Ltd., Japan]). The reaction mixture was incubated in 96 well polypropylene plate for 1 hr at room temperature, and the reaction was quenched by rapid filtration (96 well cell harvester) through a GF/C filter treated with wash buffer (50 mM Tris (pH 7.4)). Subsequently, the filter was washed 5 times with 0.3 mL of ice-cooled wash buffer. The filter was air-dried, and [^125I]-angiotensin II binding radioactivity was assayed with Top Count scintillation counter. Total binding was measured in the presence of 1% DMSO and nonspecific binding was measured in the presence of 1 μM CV-11974. The binding data was analyzed by GraphPad Prism program and the IC50 value (compound concentration showing 50% of the maximum value of inhibition percent) of the test compound was calculated.

Row | activation at 1 µM (PPARγ) [%] | IC50 (human AT1 receptor) [nM] | Structure (SMILES)
1 | 41.5 | 1.8 | CCCCc1nc(C)n(CCc2ccc(OC)cc2)c(=O)c1Cc1ccc(-c2ccccc2-c2noc(=O)[nH]2)cc1 [Example 94, 6-butyl-3-[2-(4-methoxyphenyl)ethyl]-2-methyl-5-{[2′-(5-oxo-4,5-dihydro-1,2,4-oxadiazol-3-yl)biphenyl-4-yl]methyl}pyrimidin-4(3H)-one]
2 | 27.4 | 1.6 | CCCCc1nc(C)n(-c2ccccc2)c(=O)c1Cc1c(F)cc(-c2ccccc2-c2noc(=O)[nH]2)cc1F [Example 204, 6-butyl-5-{[3,5-difluoro-2′-(5-oxo-4,5-dihydro-1,2,4-oxadiazol-3-yl)biphenyl-4-yl]methyl}-2-methyl-3-phenylpyrimidin-4(3H)-one]
3 | 48.7 | 1.4 | C=COc1ccc(-n2c(C)nc(CCC)c(Cc3ccc(-c4ccccc4-c4noc(=O)[nH]4)cc3F)c2=O)cc1 [Example 408, 5-{[3-fluoro-2′-(5-oxo-4,5-dihydro-1,2,4-oxadiazol-3-yl)biphenyl-4-yl]methyl}-2-methyl-6-propyl-3-[4-(vinyloxy)phenyl]pyrimidin-4(3H)-one]
4 | 29.8 | 1.3 | CCCCc1nc(C)n(CC(=O)C(C)(C)C)c(=O)c1Cc1ccc(-c2ccccc2-c2noc(=O)[nH]2)cc1 [Example 37, 6-butyl-3-(3,3-dimethyl-2-oxobutyl)-2-methyl-5-{[2′-(5-oxo-4,5-dihydro-1,2,4-oxadiazol-3-yl)biphenyl-4-yl]methyl}pyrimidin-4(3H)-one]
5 | 18.1 | 1.8 | CCCc1nc(CC)n(-c2ccc(OC3(COC)CCCC3)cc2)c(=O)c1Cc1ccc(-c2ccccc2-c2noc(=O)[nH]2)cc1 [Example 389, 2-ethyl-3-(4-{[1-(methoxymethyl)cyclopentyl]oxy}phenyl)-5-{[2′-(5-oxo-4,5-dihydro-1,2,4-oxadiazol-3-yl)biphenyl-4-yl]methyl}-6-propylpyrimidin-4(3H)-one]
6 | 45.7 | 2 | CCCc1nc(C)n(-c2ccc(OC(CC)CC)cc2)c(=O)c1Cc1ccc(-c2ccccc2-c2noc(=O)[nH]2)cc1 [Example 256, 3-[4-(1-ethylpropoxy)phenyl]-2-methyl-5-{[2′-(5-oxo-4,5-dihydro-1,2,4-oxadiazol-3-yl)biphenyl-4-yl]methyl}-6-propylpyrimidin-4(3H)-one]
7 | 33.5 | 1.3 | CCCc1nc(CC)n(-c2ccc(OC3CCOC(C)C3)cc2)c(=O)c1Cc1ccc(-c2ccccc2-c2noc(=O)[nH]2)cc1 (centres unmarked) [Example 424, 2-ethyl-3-{4-[(2-methyltetrahydro-2H-pyran-4-yl)oxy]phenyl}-5-{[2′-(5-oxo-4,5-dihydro-1,2,4-oxadiazol-3-yl)biphenyl-4-yl]methyl}-6-propylpyrimidin-4(3H)-one]
8 | 64.8 | 2.1 | CCCCc1nc(C)n(Cc2noc(-c3ccccc3)n2)c(=O)c1Cc1ccc(-c2ccccc2-c2noc(=O)[nH]2)cc1 [Example 152, 6-butyl-2-methyl-5-{[2′-(5-oxo-4,5-dihydro-1,2,4-oxadiazol-3-yl)biphenyl-4-yl]methyl}-3-[(5-phenyl-1,2,4-oxadiazol-3-yl)methyl]pyrimidin-4(3H)-one]
9 | 53.7 | 2.1 | CCCc1nc(CC)n(-c2ccc(OC(C)C)c(F)c2)c(=O)c1Cc1ccc(-c2ccccc2-c2noc(=O)[nH]2)cc1 [Example 363, 2-ethyl-3-(3-fluoro-4-isopropoxyphenyl)-5-{[2′-(5-oxo-4,5-dihydro-1,2,4-oxadiazol-3-yl)biphenyl-4-yl]methyl}-6-propylpyrimidin-4(3H)-one]
10 | 31.7 | 2.2 | CCCCc1nc(OC)n(-c2ccccc2)c(=O)c1Cc1ccc(-c2ccccc2-c2noc(=O)[nH]2)cc1 [Example 108, 6-butyl-2-methoxy-5-{[2′-(5-oxo-4,5-dihydro-1,2,4-oxadiazol-3-yl)biphenyl-4-yl]methyl}-3-phenylpyrimidin-4(3H)-one]
